Consider two molecules from patent US7772003B2, “Lipid derivatives of aminoglycosides” (Aventis Pharma S.A., priority 2001, dated 2010).

In data set [1] the test system is HeLa cells. Description: Cytotoxicity by total extractable cellular proteins in the cell lysate. Format: cell-based. The following applies: 48 hours post-transfection, high charge ratio. Here is the method: FIG. 4: Cytotoxicity of the transfecting compound KanaChol. HeLa cells were transfected in accordance with the protocol described in Example 3 using lipoplexes prepared by mixing 5 μg of plasmid DNA expressing luciferase with the amount of lipid required to form lipoplexes characterized by the charge ratio indicated. At 48 hours post-transfection, the cells were recovered and the toxicity was quantified using the total amount of cellular proteins in the cell lysate as an index of the number of cells, cell death producing a decrease in the extractable proteins. The total cellular proteins in the cell lysate is indicated as a function of the charge ratio of the lipoplexes. The data are expressed as concentration of extractable cellular proteins in the cell lysate (at fixed volume).
FIG. 5: Cytotoxicity of the KanaChol/DOPE (molar ratio 1:1) lipsomes. […] At 48 hours post-transfection, the cells were recovered and the toxicity was quantified using the total amount of cellular proteins in the cell lysate as an index of the number of cells, cell death producing a decrease in the extractable proteins. […] The data are expressed as concentration of extractable cellular proteins in the cell lysate (at fixed volume).
Thus, the cytotoxicity of the KanaChol was also measured at various charge ratios with the DNA. […]

The nature of data set [2]: Electrophoretic gel shift studies (mean positive charge). It counts as physicochemical. The following applies: complexed with nucleic acids. The method, then: (§1) This study was carried out for lipoplexes comprising various amounts of KanaChol: 6.6, 13.2, 33, 66 or 132 nmol of KanaChol per 5 μg of DNA. In order to determine the theoretical mean charge ratio, it was considered that 1 μg of DNA represents 3 nmol of negative charges and that 3 amine groups of kanamycin are protonated at neutral pH during the formation of the lipoplexes and the transfection.

The test system of data set [3] is various cell lines (16HBE, HepG2). Description: In vitro transfection activity spectrum in other, less conventional cell lines (luciferase). To be noted: charge ratios of between 3 and 5; KanaChol alone weaker in particular in 16HBE and HepG2. It counts as cell-based. The method, then: FIG. 6: Expression of luciferase in various cell lines transfected either with the transfecting compound KanaChol or with the KanaChol/DOPE (1:1) liposomes. The various cell lines were transfected in accordance with the protocol described in Example 5 using either KanaChol/DNA lipoplexes or KanaChol/DOPE/DNA lipoplexes (with a positive charge ratio of 3-5) prepared by mixing 5 μg of plasmid DNA expressing luciferase and the required amount of lipid to obtain a positive charge ratio of 3-5. The data are expressed in relative light units (RLU) per mg of cellular proteins.
The in vitro transfection experiments carried out in Examples 4 and 5 were again carried out in a similar way, but with other less conventional cell lines (species and specificity of each cell line are indicated in FIG. 6). The KanaChol/DNA and KanaChol/DOPE/DNA formulations were used at charge ratios of between 3 and 5 (optimum values as defined in Examples 4 and 5).

Data set [4] relates to HeLa, HEK293 and COS cells. Description: In vitro transfection, dose-response (luciferase reporter gene expression). It counts as cell-based. The method, then: FIG. 2: Dose-response curves of the in vitro transfection activity of the transfecting compound “KanaChol”. The expression of the reporter gene is indicated as a function of the charge ratio of the lipoplexes formed with the plasmid DNA. The HeLa, HEK293 and COS cells were transfected in accordance with the protocol described in Example 3 using lipoplexes prepared by mixing 5 μg of plasmid DNA expressing luciferase with the required amount of lipid. The data are expressed in relative light units (RLU) per mg of cellular proteins.
FIG. 3: Dose-response curves of the in vitro transfection activity of the KanaChol/DOPE (molar ratio 1:1) liposomes. The expression of the reporter gene is indicated as a function of the charge ratio of the lipoplexes formed with the plasmid DNA. The HeLa, HEK293 and COS cells were transfected in accordance with the protocol described in Example 4 using lipoplexes prepared by mixing 5 μg of plasmid DNA expressing luciferase with the required amount of lipid to form lipoplexes characterized by the charge ratio indicated. The data are expressed in relative light units (RLU) per mg of cellular proteins.
as §1
Preparation of the KanaChol/DNA lipoplexes: the KanaChol obtained according to Example 1 was dissolved in a 20 mM Hepes buffer solution (pH 7.4) at a positive charge concentration of 20 mM (considering that 3 amine functions are protonated at neutral pH). The lipoplexes were then prepared in accordance with the protocol described by Vigneron et al. (PNAS, 93, pp. 9682-9686, September. 1996) or by Patel et al. (Biochem. and Biophys. Res. Comm., 281, pp. 536-543, 2001).
Cell culture: HeLa cells (American Type Culture Collection (ATCC) Rockville, Md., USA) derived from a human cervical epithelium carcinoma were cultured in the presence of a medium of the MEM (minimum essential medium) type supplemented with 10% of fetal calf serum and antibiotics. The medium and the additives came from Gibco/BRL Life Technologies (Gaithersburg, Md., USA). The cells were cultured in flasks at 37° C. and at 5% of carbon dioxide in an incubator. […]
A 20 μl aliquot of supernatant of the centrifuged lysate was diluted in 100 μl of lysis buffer, to which 4 μl of 25 mM ATP (Sigma) and 20 μl of 25 mM luciferin (Sigma) were added. The samples were then placed in a Lumet LB9501 luminometer (Berthold, Nashua, N.H.) and the light emission integration value was measured for 10 seconds. […]
For orientation: Reporter assays use an easily measured gene product as a stand-in for the process of interest.

Data set [5] has as its system HeLa; NIH 3T3; HEK298; COS; and 16HBE cell lines. The data set is described as follows: In vitro transfection activity of NeoChol and NeoChol/DOPE (luciferase). To be noted: various charge ratios (1.3-26 NeoChol/DNA, 0.66-26 NeoChol/DOPE/DNA); 5 cell lines; NeoChol alone weaker particularly in 16HBE. It counts as cell-based. Here is the method:
FIG. 8: Transfecting activity in various cell lines (HEK293, NIH3T3, HeLa, COS, 16HBE), which were transfected with the transfecting compound NeoChol. The expression of the reporter gene can be indicated as a function of the various charge ratio of the lipoplexes and plasmid DNA. The various cell lines were transfected according to the protocol as described in Example 8, using NeoChol/DNA lipoplexes, which were prepared by mixing 5 μg of plasmid DNA expressing luciferase. The data can be expressed in relative light units (RLU) per mg of cellular proteins.
FIG. 9: Expression of luciferase in various cell lines (HEK293, NIH3T3, HeLa, COS, 16HBE), which were transfected with the transfecting compound NeoChol/DOPE (1:1). The expression of the reporter gene is indicated as a function of the various charge ratio of the lipoplexes and plasmid DNA. The various cell lines were transfected according to the protocol as described in Example 8, using NeoChol/DOPE/DNA lipoplexes, which were prepared by mixing 5 μg of plasmid DNA expressing luciferase. The data are expressed in relative light units (RLU) per mg of cellular proteins. […]

“Also recorded” adds a separate entry of the source.

As to `CC(C)CCCC(C)C1CCC2C3CC=C4CC(OC(=O)NCC5OC(OC6C(N)CC(N)C(OC7OC(CO)C(O)C(N)C7O)C6O)C(O)C(O)C5O)CCC4(C)C3CCC12C` (stereo not drawn) [KanaChol, 3β[6′-kanamycin-carbamoyl]cholesterol], in data set [1], the “cytotoxicity (total extractable cellular proteins in the cell lysate)” value is “decrease in the total number of extractable cellular proteins”. For the same molecule, the mean positive charge in data set [2] is 2-3. Further, the “transfection efficiency (luciferase expression)” value in data set [3] is on record as “less efficient overall”. Also, the “cell line with highest transfection” value in data set [4] (HeLa, HEK293 and COS compared) is recorded as “highest in the COS cell line”. For the same molecule, in data set [4] (lipoplexes with 5 μg plasmid DNA expressing luciferase, HeLa, HEK293 and COS cells, data in RLU per mg of cellular proteins), the “expression of the reporter gene luciferase (transfection)” value is listed as “high expression levels”. For the same molecule, the “theoretical mean charge ratio of optimum transfection efficiency” value in data set [4] (lipoplexes with 5 μg plasmid DNA, 3 cell lines) is on record as “approximately 5”. Further, the “charge ratio at which the transfection efficiency decreases” value in data set [4] (very high charge ratios) is on record as > 7.

Take `CC(C)CCCC(C)C1CCC2C3CC=C4CC(OC(=O)NCCSC[C@H]5O[C@@H](OC6C(O)[C@H](N)CC(N)[C@H]6O[C@H]6CC(CN)[C@@H](O)C(O)C6N)C(O)C5O[C@H]5OC(CN)[C@@H](O)C(O)C5N)CCC4(C)C3CCC12C` (some centres unmarked) [NeoChol, (5″-aminoethylsulfanyl) neomycin carbamoyl cholesterol]: the “transfection efficacy (luciferase expression)” value in data set [5] was “efficient transfection; also recorded: somewhat less efficient”.
